Measured values taken from patent US11986482B2, “Method of promoting antitumor or anti-cancer immunity” (City University of Hong Kong, priority 2021, dated 2024).

Key:
[1] = test system: 4T1 cells; experiment: T cell-mediated tumor cell killing assay; assay type: cell-based, mouse; details: 6J1 (1 µM) per FIG. 8d legend, CCK8 assay
[2] = test system: LC3 and p62; experiment: Autophagy readouts: LC3/p62 western blot and GFP-RFP-LC3 puncta in HeLa cells; assay type: cell-based; details: 6 h
Procedure: HeLa cells are treated with or without 6J1. After 6 h, cells are collected for western blot analysis of LC3 and p62. […] In addition, ATG5-knockout HeLa cells are transfected with PD-L1-GFP and LC3-RFP, and then treated with or without 6J1 (1 μM) for 24 h. Cells are fixed and imaged. […] Furthermore, LC3B-knockout HeLa cells are transfected with PD-L1-GFP, and then treated with or without 6J1 (1 μM) for 24 h. Cells are fixed and stained with antibodies against Rab5 (FIG. 6d) or Rab27a (FIG. 6e).

[3] = test system: 4T1 cells; experiment: Cell viability of 4T1 cells, MTT assay; assay type: cell-based; details: ≤1 μM, 24 h or 48 h
Procedure: (§1) The inventors also test the cytotoxicity of 6J1 in several cancer cell lines, HeLa, A549 and MDA-MB-231 cell lines. Cells are grown in 96-well plates in triplicate and treated with or without 6J1 at the concentrations of 0, 0.01, 0.1, 1, 10 and 100 μM indicated for 24 h or 48 h. They are then stained with propidium iodide (PI) or Hochest 33342 to measure the cell death ratio and cell number, respectively. […] Inventors also test the cytotoxicity of 6J1 in 4T1 cells. 4T1 cells are plated in 96-well plates in triplicate and treated with or without 6J1 at the concentrations of 0, 0.01, 0.1, 1, 5, 10, 20, 40, 80 and 100 μM indicated for 24 h or 48 h. The cell viability was then quantified via the MTT assay.

[4] = test system: 4T1 cells; experiment: Extracellular vesicle concentration, Nanosight nanoparticle analyzer, 4T1 cells; assay type: cell-based, mouse; details: 1 μM
Procedure: (§2) The current PD-L1 and PD1 therapies apply PD-L1 or PD1 monoclonal antibodies to block the PD-L1/PD1 signaling, which results in cytotoxic T cells recognizing and killing the tumor cells. […] First, flow cytometry-based quantification of plasma membrane levels of PD-L1 in 4T1 cells treated with or without 6J1 (1 μM) for 24 h. 4T1 cells are treated with or without 6J1 (1 μM) for 24 h. The supernatant is collected, and the concentration of extracellular vesicle is determined using a Nanosight nanoparticle analyzer in FIG. 8b. The exosomes are also collected and subjected to western blot analysis of the EVs marker and PD-L1 in FIG. 8c.
To assess whether the in vivo antitumor growth effect of 6J1 is related to its effect on PD-L1 in 4T1 cells, inventors knock out PD-L1 via CRISPR/Cas9 in 4T1 cells (FIG. 10a). 4T1-NC or 4T1-PD-L1 knockout cells are treated with or without 6J1 (1 μM) for 24 h. The supernatant is collected, and the concentration of extracellular vesicle is determined using a Nanosight nanoparticle analyzer. The exosomes are also collected and subjected to western blot analysis of the EVs marker and PD-L1. […] Inventors then transplant control or PD-L1-knockout 4T1 cells into the fat pad of syngeneic female Balb/c mice. The mice are randomly divided (n=5 per group) and treated with either buffer or 6J1 (30 mg/kg, daily) via oral gavage.
(§3) Therefore, it is possible that the increased exosomal PD-L1 secretion induced by 6J1 may still suppress the tumor-infiltrating T cell cytotoxicity in vivo, even though 6J1 reduces the cell surface expression level of PD-L1 on the tumor cells. To evaluate the role of exosomal PD-L1 in the tumor microenvironment and tumor progression in mice, inventors knock out Rab27a in 4T1 cells to inhibit the secretion of exosomes. 4T1-shNC or 4T1-shRab27A cells are treated with or without 6J1 (1 μM). The supernatant is collected, and the concentration of extracellular vesicle is determined using a Nanosight nanoparticle analyzer. […] Inventors analyze the plasma membrane levels of PD-L1 in 4T1-shNC or 4T1-shRab27A cells treated with or without 6J1 (1 μM). […]

[5] = Subchronic toxicity in Balb/C mice, 4 weeks oral; assay type: in vivo, mouse; details: 30 mg/kg per day
Procedure: Last, inventors investigate the in vivo toxicity of 6J1 in mice. 6-week-old Balb/C mice are treated with […] (PEG400/Ethanol/tween80, 1:1:1) or 6J1 (30 mg/kg, per day) via oral route for 4 weeks. Clinical observations, e.g., food consumption, body weight changes, and ophthalmic exams, are performed every three days. Tissue weight index (tissue weight/body weight×100%) are measured. […] 6J1 has no effects on mouse weight gain and weights of various organs (FIGS. 18a and 18b). At the end of experiment, the blood is collected from mice in each group for AST, ALT, and ALP measurement. The mice are then sacrificed, and the major organs are isolated, examined, and subjected to H&E staining.

[6] = test system: HeLa, A549 and MDA-MB-231 cell lines; experiment: Cytotoxicity, propidium iodide cell death ratio; assay type: cell-based; details: 24 h or 48 h
Procedure: as §1

[7] = test system: PD-L1; experiment: Western blot of PD-L1 in exosomes of 4T1 cells; assay type: cell-based, mouse; details: 1 μM
Procedure: as §2, §3

[8] = test system: HeLa, A549 and MDA-MB-231 cell lines; experiment: Cytotoxicity, Hochest 33342 cell number; assay type: cell-based; details: 24 h or 48 h
Procedure: as §1

[9] = test system: 4T1 cells; experiment: 4T1-shNC or 4T1-shRab27A tumors in Balb/c nude mice; assay type: in vivo, mouse; details: 30 mg/kg, daily, oral gavage
Procedure: Inventors also implant control or Rab27a-knockout 4T1 cells into the fat pads of female Balb/c nude mice. The mice are randomly divided (n=4 per group) and treated with either buffer or 6J1 (30 mg/kg, daily) via oral gavage.

[10] = GFP-RFP-LC3-expressing HeLa cells, 1 μM

With `OCCOCCN(c1ccccc1)c1nc(N/N=C/c2cccc(I)c2)nc(N2CCOCC2)n1` [Compound 6J1] the “sensitivity of 4T1 cells to pre-activated T cell-mediated cytolysis” value [1] was “more sensitive to pre-activated T cell-mediated cytolysis”, the “formation of yellow LC3B puncta” value [2, 10] was “significantly induces the formation of yellow LC3B puncta” and the “red-only LC3B puncta” value [2, 10] was “no red-only LC3B puncta are observed”. The “level of LC3B-II and P62” value ([2]; HeLa cells, western blot) was “markedly induced an increase in the level of LC3B-II and P62”, the “proliferation of 4T1 cells” value [3] was “little effect” and the “6J1-induced EVs secretion” value ([4]; 4T1-shRab27A cells) was “significantly inhibits 6J1-induced EVs secretion”. The “6J1-induced EVs secretion” value ([4]; PD-L1-knockout 4T1 cells, 24 h) was “does not affect 6J1-induced EVs secretion”, the behavior [5] was “no signs of behavior abnormality” and the “liver function test (AST, ALT, ALP in blood)” value [5] was “no apparent changes in liver function test”. For the same compound, the mouse weight gain [5] was “no effects”, the “pathological changes in major organs (H&E staining)” value [5] was “no signs of pathological changes in major organs” and the “weights of various organs (tissue weight index)” value [5] was “no effects”. For the same compound, the cell death ([6]; 0.01-100 μM) was “induces cell death in a concentration-dependent manner”, the “cell death at effective concentrations” value ([6]; ≤1 μM) was “hardly induces any cell death” and the “6J1-induced exosomal PD-L1 levels” value ([7]; 4T1-shRab27A cells) was “significantly inhibits”. For the same compound, the “secretion of PD-L1 in exosomes” value ([7]; 4T1 cells, 24 h) was “induces the secretion of PD-L1 in exosomes”, the “cell proliferation (cell number)” value ([8]; 0.01-100 μM) was “inhibits cell proliferation in a concentration-dependent manner” and the “cell proliferation at effective concentrations” value ([8]; ≤1 μM, several cell types) was “only subtly inhibits cell proliferation”. The “anti-cancer effect of 6J1 or 6J1 with Rab27a knockout in immunocompromised mice” value [9] was “dramatically abolished”.
